This note sets out measurements from patent US4684650A, “Antihypertensive fluorophenylindanyl imidazolidinoneethylpiperazines” (priority 1984, dated 1987).

pIC50: −log10 of the molar value. Where two headings read alike, the source gives them in different places.

Assay [1] has as its system 1-5-HTP-induced head shakes. As to the kind of experiment: 1-5-HTP-induced head shakes. The class given is in vivo. To be noted: rats, 1-5-HTP 75 mg/kg i.p. after citalopram; for ED50: Rattus norvegicus, sc, read-out: 1-5-HTP-antg. ED50; for 1-5-HTP-antg. ED50: s.c. As to the method:
The rats were pretreated subcutaneously with test compound or saline simultaneously with or 90 min before injection of citalopram (10 mg/kg s.c.).
Each group consisted of 4-12 rats.

The subject of assay [2] is phenylephrine pressor responses. In words: Antagonism to phenylephrine pressor responses in pithed rats. The class given is in vivo. To be noted: for ED50: Rattus norvegicus, iv, read-out: Effects on pressor response of Phenylephrine, ED50; for Phenylephr. antg./5-HT antg. (ratio): pithed rats, ratio of phenylephrine ED50 to 5-HT ED50. As to the method:
(§1) The rat is anaesthetized with ether, tracheotomized, artificial respired and pithed. The knitting-needle is introduced through the right orbita into the cranial cavity and passed through foramen magnum into the spinal canal as far as possible. The spinal cord is destroyed by turning the needle. After vagotomi both carotides are ligated and a catheter placed in the right one for pressure recording. The rat is adrenalectomized. […] The initial and post medication mean pressor effect is calculated, and the mean pressor effect is calculated as % of the initial value. Two to five preparations are employed for each dose level. The ED50 is determined.

The test system of the next assay is 5-HT pressor responses. As to the kind of experiment: Antagonism to 5-HT pressor responses in pithed rats. The class given is in vivo. Particulars: for change in vivo at 0.02 mg/kg / ED50: Rattus norvegicus, iv; for change in vivo at 0.02 mg/kg: read-out: Effects on pressor response of 5-HT, % eff. of 0.02 mg/kg, pithed rats, 0.02 mg/kg, jugular vein; for ED50: read-out: Effects on pressor response of 5-HT, ED50, pithed rats, jugular vein. The procedure:
as §1

Another assay addresses T1, 5-HT2 receptors (Rattus norvegicus, UniProt P14842).
T1 construct: Rat whole cortex was homogenized by an Ultra Turrax homogenizer; from tissue; host or cells: rat whole cerebral cortex, crude washed membranes
In words: 3H-spiroperidol binding to 5-HT2 receptors. Particulars: rat whole cortex, 0.5 nM 3H-spiroperidol, 0.3 μM sulpiride; read-out: 3H-SPI binding 5-HT2 IC50. The procedure:
^3 H-spiroperidol binding to 5-HT2 receptors.
Rat whole cortex was homogenized by an Ultra Turrax homogenizer in 100 vol. of 50 mM Tris buffer pH 7.7. The homogenate was centrifuged at 20,000 g for 10 minutes at 4° C. The pellet was rehomogenized in another volume of buffer and centrifuged as mentioned above. The final pellet was rehomogenized in 50 mM Tris buffer pH 7.7 containing 120 mM NaCl, 5 mM KCl, 2 mM CaCl2 and 1 mM MgCl2 (ion mix) in a volume corresponding to 12.5 mg original tissue per ml.
Test drugs were dissolved in water; ^3 H-spiroperidol (NEN, 28-30 Ci/mmol) was diluted in 3 μM sulpiride, and 800 μl membrane suspension were added. Final concentration of ligand and sulpiride were 0.5 nM and 0.3 μM, respectively. The samples were incubated at 37° C. for 10 min. The samples were then filtered under vacuum through Whatman GF/B glass-fiber filters. The tubes were then rinsed with 5 ml incubation buffer, which was poured on the filters. The filters were finally washed twice with 5 ml buffer and placed in counting vials. After addition of 5 ml scintillation fluid (Lumagel) radioactivity was estimated by liquid scintillation counting. Non-specific binding was obtained by adding Mianserin (1 μM) to separate samples. Each drug was tested at least twice at 5 concentrations in triplicate. IC50-values were determined from log concentration-response curves.--The presence of sulpiride excluded binding to dopamine D-2 receptors.

Assay [3] relates to spontaneous hypertensive rats (SHR). As to the kind of experiment: Antihypertensive effect in spontaneous hypertensive rats (SHR). The class given is in vivo. To be noted: for change in vivo at 5 mg/kg / ED10: Rattus norvegicus, ip; for change in vivo at 5 mg/kg: 1 h; for peripheral or central action: in words. The procedure:
Antihypertensive effect in spontaneous hypertensive rats (SHR)
The femoral artery of male SHR is cannulated in anaestesia for blood pressure recordings. After a stabilization period of 11/2 h after discontinuation of the anaesthesia initial blood pressure curves are recorded and the systolic (SAP)/diastolic (DAP) pressure determined (-20, -10, 0, min. p.i.) Test substance is injected i.p. and the pressure curve recorded for one hour. The change in SAP/DAP is calculated in percent at mean initial values at different times (10, 20, 30, 40, 50 and 60 minutes after injection). At least two SHR are used per dose level. The maximum change is used for estimation of the drug effect.

The subject of assay [4] is methylphenidate induced stereotypies. In words: Methylphenidate Antagonism. The class given is in vivo, mice. To be noted: for ED50: Mus musculus, ip, read-out: MePh antg. ED50, i.p., mice, 2 hours before methylphenidate 60 mg/kg s.c. The procedure: The experiments were made as described by Pedersen and Christensen (1972) Acta Pharmacol. et Toxicol. 31, 488-496.--Briefly, test compounds or saline were injected i.p. 2 hours before methylphenidate, 60 mg/kg s.c. 3 pairs of mice were used for each dose level. After methylphenidate injection the mice were placed in observation cages for one hour. The cages were placed on corrugated paper, the corrugation facing upwards.

The mark [5] stands for this setting: read-out: Antihypertensive eff. SHR, max eff. in % of 5 mg/kg ip, DAP, 5 mg/kg ip, diastolic pressure (DAP), max change within one hour.
The mark [6] stands for this setting: read-out: Antihypertensive eff. SHR, max eff. in % of 5 mg/kg ip, SAP, 5 mg/kg ip, systolic pressure (SAP), max change within one hour.
[7] abbreviates: read-out: Antihypertensive eff. SHR, ED10 DAP.
[8] abbreviates: read-out: Antihypertensive eff. SHR, ED10 SAP.

T1 sequence (P14842 whole entry): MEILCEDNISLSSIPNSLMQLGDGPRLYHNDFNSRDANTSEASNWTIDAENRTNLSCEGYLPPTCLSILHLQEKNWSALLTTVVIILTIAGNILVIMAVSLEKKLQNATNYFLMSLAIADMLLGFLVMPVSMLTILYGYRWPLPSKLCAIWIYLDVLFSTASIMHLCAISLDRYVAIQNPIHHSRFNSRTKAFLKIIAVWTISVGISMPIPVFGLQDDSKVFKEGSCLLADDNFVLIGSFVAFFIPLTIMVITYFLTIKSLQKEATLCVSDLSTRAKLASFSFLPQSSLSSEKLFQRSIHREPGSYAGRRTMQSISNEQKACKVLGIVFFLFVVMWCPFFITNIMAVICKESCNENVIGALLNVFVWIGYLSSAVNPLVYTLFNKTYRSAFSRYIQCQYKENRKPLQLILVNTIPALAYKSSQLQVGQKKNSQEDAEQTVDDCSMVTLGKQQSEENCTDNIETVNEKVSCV

With `CSc1ccc2c(c1)[C@H](N1CCN(CCN3CCOC3=O)CC1)C[C@H]2c1ccc(F)cc1` (relative stereo) [compound 10, Trans-1-[3-(4-fluorophenyl)-6-methylthioindan-1-yl]-4-[2-(2-oxazolidinon-3-yl)ethyl]piperazine], the ED50 was 2.4 µmol/kg in assay [1], 9.4 µmol/kg in assay [2], 0.034 µmol/kg in the assay on 5-HT pressor responses and more than 76 µmol/kg in assay [4]. For the same compound, the “Phenylephr. antg./5-HT antg. (ratio)” value in assay [2] came out at 276. Further, the change in vivo at 0.02 mg/kg in the assay on 5-HT pressor responses was -57%. Also, the pIC50 at 5-HT2 receptors was 8.18. Also, the change in vivo at 5 mg/kg is -22% in assay [3] (setting [5]) and -14% in assay [3] (setting [6]).
With `CN1CCN(CCN2CCN([C@@H]3C[C@@H](c4ccc(F)cc4)c4ccc(F)cc43)CC2)C1=O` (relative stereo) [compound 3], the ED50 in assay [1] was 0.08 µmol/kg; in assay [2], 14 µmol/kg; in the assay on 5-HT pressor responses it was 0.01 µmol/kg; in assay [4] it was more than 78 µmol/kg. For the same compound, the “Phenylephr. antg./5-HT antg. (ratio)” value in assay [2] came to 1400. Besides, the change in vivo at 0.02 mg/kg in the assay on 5-HT pressor responses was -87%. At 5-HT2 receptors, the pIC50 was 8.47. For the same compound, the change in vivo at 5 mg/kg in assay [3] (setting [5]) is -13%; in assay [3] (setting [6]), -11%.
As for `O=C1NCCN1CCN1CCN([C@@H]2C[C@@H](c3ccc(F)cc3)c3ccc(F)cc32)CC1` (single isomer, unassigned) [+2, (+)Trans-1-[3-(4-fluorophenyl)-6-fluoroindan-1-yl]-4-[2-(2-imidazolidinon-1-yl)ethyl]piperazine], the “1-5-HTP-antg. ED50” value in assay [1] stood at 0.10 µmol/kg. For the same compound, the ED50 was 1.43 µmol/kg in assay [2] and more than 61 µmol/kg in assay [4]. In addition, the “Phenylephr. antg./5-HT antg. (ratio)” value in assay [2] amounted to 143. In addition, the “Effects on pressor response of 5-HT, ED50” value in the assay on 5-HT pressor responses (pithed rats, jugular vein) was determined as 0.010 µmol/kg. In addition, the pIC50 on 5-HT2 receptors is 8.37. Moreover, the “Antihypertensive eff. SHR, max eff. in % of 5 mg/kg ip, DAP” value in assay [3] (5 mg/kg ip, diastolic pressure (DAP), max change within one hour) was -40%. For the same compound, in assay [3] (5 mg/kg ip, systolic pressure (SAP), max change within one hour), the “Antihypertensive eff. SHR, max eff. in % of 5 mg/kg ip, SAP” value is on record as -31%. For the same compound, the figures for the ED10 in assay [3] (setting [7]) and in assay [3] (setting [8]) were 0.8 µmol/kg and 1.6 µmol/kg, respectively.
Turning to `O=C1NCCN1CCCN1CCN([C@@H]2C[C@@H](c3ccc(F)cc3)c3ccc(F)cc32)CC1` (relative stereo) [compound 14], the ED50 in assay [1] turned out to be 2 µmol/kg; in assay [2], 2.68 µmol/kg; in the assay on 5-HT pressor responses, 0.031 µmol/kg; in assay [4], 56 µmol/kg. For the same compound, the “Phenylephr. antg./5-HT antg. (ratio)” value in assay [2] worked out at 86. Besides, in the assay with 5-HT pressor responses, the change in vivo at 0.02 mg/kg was -68%. Also, the pIC50 on 5-HT2 receptors is 8.20. Besides, the change in vivo at 5 mg/kg in assay [3] (setting [5]) was -19%; in assay [3] (setting [6]), -12%. Further, the “peripheral or central action” value in assay [3] is on record as “mainly possess periferal action”.
Consider `OCCN1CCN([C@@H]2C[C@@H](c3ccc(F)cc3)c3ccc(C(F)(F)F)cc32)CC1` (racemic) [Tefludazine, (±)trans-4-[3-(4-fluorophenyl)-6-(trifluoromethyl)-indan-1-yl]-1-piperazineethanol, reference compound], for which the ED50 in assay [1] was 0.039 µmol/kg; in assay [2], 1.7 µmol/kg; in the assay on 5-HT pressor responses it was 0.015 µmol/kg; in assay [4], 0.06 µmol/kg. Also, the “Phenylephr. antg./5-HT antg. (ratio)” value in assay [2] is 115. Also, in the assay on 5-HT pressor responses, the change in vivo at 0.02 mg/kg is -78%. The pIC50 at 5-HT2 receptors is 8.07. The change in vivo at 5 mg/kg in assay [3] (setting [5]) is -24%; in assay [3] (setting [6]), -18%. In assay [3], the “peripheral or central action” value is reported as “marked central effects”. Further, the “activity against methylphenidate induced stereotypies” value in assay [4] (in words) is given as “high activity”.
For `Cc1ccc2c(c1)[C@H](N1CCN(CCN3CCNC3=O)CC1)C[C@H]2c1ccc(F)cc1` (relative stereo) [compound 4, Trans-1-[3-(4-fluorophenyl)-6-methylindan-1-yl]-4-[2-(2-imidazolidinon-1-yl)ethyl]piperazine], the ED50 in assay [1] was 0.13 µmol/kg; in assay [2], 2.02 µmol/kg; in the assay with 5-HT pressor responses, 0.017 µmol/kg; in assay [4], 27 µmol/kg. Moreover, the “Phenylephr. antg./5-HT antg. (ratio)” value in assay [2] amounted to 119. For the same compound, the change in vivo at 0.02 mg/kg with 5-HT pressor responses was -73%. Also, the pIC50 on 5-HT2 receptors was 7.64. Besides, the change in vivo at 5 mg/kg in assay [3] (setting [5]) was -32%; in assay [3] (setting [6]) it was -27%. For the same compound, the results for the ED10 in assay [3] (setting [7]) and in assay [3] (setting [8]) were 2.4 µmol/kg and 3.3 µmol/kg, respectively.
On to `CN1CCN(CCN2CCN([C@@H]3C[C@@H](c4ccc(F)cc4)c4ccc(F)cc43)CC2)C1=O` (single isomer, unassigned) [+3, (+)Trans-1-[3-(4-fluorophenyl)-6-fluoroindan-1-yl]-4-[2-(3-methyl-2-imidazolidinon-1-yl)ethyl]piperazine], for which, in assay [1], the “1-5-HTP-antg. ED50” value was determined as 0.023 µmol/kg. For the same compound, the ED50 in assay [2] is 2.25 µmol/kg; with 5-HT pressor responses it was 0.004 µmol/kg; in assay [4] it was more than 91 µmol/kg. The “Phenylephr. antg./5-HT antg. (ratio)” value in assay [2] is listed as 563. Further, the “Effects on pressor response of 5-HT, % eff. of 0.02 mg/kg” value in the assay on 5-HT pressor responses (pithed rats, 0.02 mg/kg, jugular vein) is recorded as -89%. The pIC50 on 5-HT2 receptors is 8.96. For the same compound, the change in vivo at 5 mg/kg in assay [3] (setting [5]) is -52%; in assay [3] (setting [6]), -38%.
For the compound `O=C1NCCN1CCN1CCN([C@@H]2C[C@@H](c3ccc(F)cc3)c3ccc(F)cc32)CC1` (relative stereo) [compound 2], the ED50 in assay [1] was 0.13 µmol/kg; in assay [2], 2.55 µmol/kg; in the assay on 5-HT pressor responses, 0.017 µmol/kg; in assay [4], 79 µmol/kg. In addition, in assay [2], the “Phenylephr. antg./5-HT antg. (ratio)” value came to 150. Also, in the assay with 5-HT pressor responses, the change in vivo at 0.02 mg/kg is -89%. Moreover, the pIC50 on 5-HT2 receptors was 8.17. For the same compound, the figures for the change in vivo at 5 mg/kg in assay [3] (setting [5]) and in assay [3] (setting [6]) were -19% and -14%, respectively. For the same compound, the values for the ED10 in assay [3] (setting [7]) and in assay [3] (setting [8]) were 4.1 µmol/kg and 9.2 µmol/kg, respectively.
